Measurements published in patent publication US20200308162A1, “DRUGS AND COMPOSITIONS FOR OCULAR DELIVERY” (Graybug Vision, Inc., priority 2017, published 2020).
Entries after “also recorded” stand apart in the source; their conditions may differ.

How the values were obtained:
[1] = Drug solubility in water, DMSO and DCM (HPLC of filtered supernatant); conditions: thermodynamic from solid
Experimental: For each test, approximately 5-10 mg was transferred to a 10 mL glass vial. Aqueous or organic solvent was added to each vial to achieve an overall concentration of 50 mg/mL. After vortexing aggressively for 2-3 minutes and sonicating in a bath sonicator for 5 minutes, undissolved drug was spun down at 1200 rpm for 5 minutes to generate a pellet. The supernatant was collected and filtered through a 0.2 μm nylon syringe filter into HPLC vials for drug content analysis. Drug concentration was determined by comparing against a standard calibration curve.

[2] = In vitro stability of ethacrynic acid prodrugs at 37° C.; type: physicochemical; conditions: 37° C.
Text: As evidenced, both prodrugs of ethacrynic acid degrade steadily over the 6 day period. As the ester linkages are hydrolyzed, the parent compound is generated in a linear rate. The rate of degradation to the parent compound is faster for the shorter […] in comparison to the degradation kinetics for ethacrynic acid-PLA(n=4)-ethyl ester (1).
Approximately 94% of the ECA-PLA(n=4) prodrug (1) has been converted to free ECA by day 6, in comparison to only 56% for ECA-PLA(n=6) (25). Also, by day 6, all the initial prodrug has been degraded into intermediates and free drug respectively.

[3] = Degradation of ECA prodrugs heated at 60° C. in water/acetonitrile (HPLC-MS); type: physicochemical; conditions: 60° C. in 50/50 water (0.1% FA)/acetonitrile (0.1% FA)
Experimental: Prodrugs of ECA were challenged by heating at 60° C. in 50/50 water (0.1% FA)/acetonitrile (0.1% FA), and the degradants were separated using a reverse phase HPLC equipped with a C-18 bonded stationary phase. The identification of various peaks was accomplished by mass spectrometry detector and retention time comparison with available standards.
Chromatographic separation of ethacrynic acid parent compounds and their PLA conjugated derivatives was achieved using an Agilent 1260 Infinity II LCMS equipped with an Waters Symmetry C18 column (5 μm, 4.6 mm×150 mm) as the stationary phase and acetonitrile/water as the mobile phase. The gradient separation method is outlined in Table 4. The analysis was performed at an injection volume of 10 μL, a flow rate of 1.2 mL/min and a detection wavelength of 230 nm at 25° C. Retention times for ethacrynic acid and PLA-conjugated compounds are illustrated in Table 5.
Table 6 illustrates the calculated mass and structure of all the individual intermediates and the parent compound. Calculated mass ions were extracted using a MS G6135B detector with positive and negative polarity acquisition between mass 100-1000, fragmentation at 250, gain at 1, threshold of 150, and speed of 2080 u/sec. Extracted ions and polarity for individual mass spectometry peak identification is outlined in Table 7.

[4] = Drug release kinetics of Timolol and ethacrynic acid prodrugs from polymer microparticles; type: physicochemical
Experimental: The effect of polymer composition including monomer ratio and molecular weight, polymer end-groups (ester or acid), inherent viscosity and polymer blend ratios on particle degradation and drug release kinetics of Timolol-O-ethyl fumurate (17) was evaluated and is illustrated in FIG. 5. The rate of particle degradation was slowed and drug release was prolonged when the mole % of DL-lactide over glycolide was increased. By incorporating polymers with different monomer ratios (i.e., PLA, PLGA8515, PLGA525, PLGA5050 wherein 8515 refers to 85% DL-lactide and 15% glycolide) into the particles, it is possible to fine-tune the degradation rate of the particles to achieve a linear rate of drug release from the particles to minimize burst or lag and to extend the duration of release. […] The 78/22(PLA 5A/PLGA8515 4.5A) and 65/20/15(PLA 4A/PLGA6515 4.5A/PLGA5050 4A) polymer blends generated ideal particles for a 3-6 month linear release formulation. […] The rate of release was independent of the salt form. […] Thus, release rate is not solely dictated by the physicochemical properties of the linker, but rather must be attributed to a combination of parameters that may include linker type and site of linker conjugation.
FIG. 6 illustrates the release kinetics of ethacrynic acid-PLA(n=4)-ethyl ester (1) from PLGA microparticles. The drug was released over a period of approximately 66 days.
FIG. 8 and FIG. 9 illustrate the release kinetics of ethacrynic acid-PLA(n=4)-ethyl ester (1) and ethacrynic acid-PLA(n=6)-ethyl ester (25), respectively, from PLGA microparticles. The drug was released from a number of formulations over a period of greater than 90 days. […] Particles generated with 1% PVA in PBS was compared against particles generated in 1% PVA in water (FIG. 10).
Based upon these initial formulation screens, the formulation comprising of 1% mPEG-PLGA and 99% PLA100 4.5A:PLGA8515 5A (77:22) was selected as the lead formulation for ECA-PLA(n=4) (1) and ECA-PLA(n=6) (25) prodrugs. The particles were prepared in 1% PVA in water. The release profiles for the lead ECA-PLA(n=4) (1) and ECA-PLA(=6) (25) particle formulations are illustrated in FIG. 11.

[5] = Percent drug loading of ethacrynic acid prodrug microparticles (RP-HPLC); type: physicochemical
Experimental: To determine the percent drug loading (% DL), 10 mg of particles was weighed into a glass scintillation vial and dissolved with 10 mL of MeCN:water (1:1, v/v). The solution was filtered through a 0.2 μm nylon syringe filter and the drug content was determined by RP-HPLC referenced against a standard calibration curve.

[6] = Mean size of ethacrynic acid prodrug encapsulated microparticles; type: physicochemical
[7] = In vitro drug release kinetics of Timolol prodrug microparticles in PBS and 1% Tween 20 (pH 7.4) at 37° C.; type: physicochemical
Experimental: In vitro drug release kinetics were evaluated in a release medium composed of PBS and 1% Tween 20 (pH 7.4). Briefly, 10 mg of particles was suspended in 4 mL of the release medium The particle suspension was incubated on an orbital shaker at 150 rpm at 37° C. At various time points, 3 mL of release media was collected, and the suspension was replenished with 3 mL of fresh release media. Collected release samples were frozen and stored at −80° C. until analysis for drug content. The collected samples were filtered through a 0.2 μm syringe filter and analyzed by RP-HPLC. FIG. 17-FIG. 22 illustrate the total and parent Timolol release profile for the microparticles encapsulating bis-prodrugs of Timolol of Table 11.

[8] = Stability of Timolol prodrugs in PBS via HPLC; type: physicochemical; conditions: PBS (100% PBS)
Experimental: The stability of Compound 51 was measured in 100% serum (FIG. 27A), 50% serum and 50% PBS (FIG. 27B), and 100% PBS (FIG. 27C) via HPLC. Each point on the graph is the retention time of Compound 51, parent Timolol, and 4 breakdown products at day 0, 1, 2, 3, 4, or 5 as measured. […] The concentration of the breakdown product with a retention time of 5.454 minutes was higher than the concentration of parent Timolol (retention time=4.4 minutes).
The stability of Compound 52 was measured in PBS (FIG. 28) and the stability of Compound 53 was measured in PBS (FIG. 29).

[9] = carboxylic acid; cited from earlier work
glaucomatous monkey eyes = conditions: ointment, highest concentration of 2.5% ECA, four glaucomatous monkey eyes; cited from earlier work
monkey eyes = conditions: topical eye drops, cited from earlier work
rabbit eyes = conditions: topical eye drops, cited from earlier work
[10] = clinical trials and post-marketing clinical use; cited from earlier work
[11] = PLA100 4.5A + 1% PEG-PLGA5050, polymer 200 mg/mL
[12] = PLA100 4.5A + PLGA7525 6E (69:30) + 1% PEG-PLGA5050, polymer 200 mg/mL
[13] = PLA100 4.5A + PLGA8515 5A (77:22) + 1% PEG-PLGA5050, polymer 200 mg/mL
[14] = PLA100 4.5A + PLGA8515 5A + PLGA5050 4A (64:20:15) + 1% PEG-PLGA5050, polymer 200 mg/mL
[15] = PLA100 4.5A + PLGA8515 5A + PLGA5050 4A (64:30:5) + 1% PEG-PLGA5050, polymer 200 mg/mL
[16] = PLGA7525 4A + 1% PEG-PLGA5050, polymer 200 mg/mL

C=C(CC)C(=O)c1ccc(OCC(=O)O[C@@H](C)C(=O)O[C@@H](C)C(=O)O[C@@H](C)C(=O)O[C@@H](C)C(=O)O[C@@H](C)C(=O)O[C@@H](C)C(=O)OCC)c(Cl)c1Cl [Compound 25, (S)-2-((S)-2-[(S)-2-((S)-2-(2-[2,3-Dichloro-4-(2-methylene-butyryl)-phenoxy]-acetoxy)-propionyloxy)-propionyloxy]-propionyloxy)-propionic acid (S)-1-((S)-1-ethoxycarbonyl-ethoxycarbonyl)-ethyl ester]
solubility ([1]; DMSO, organic solvent or mixture): > 50 mg/mL
solubility ([1]; water): < 0.1 mg/mL
rate of degradation of the prodrug ([2]; 6 days): degraded slightly slower
prodrug converted to free ECA by day 6 ([2]; day 6): 56%
hydrolysis products [3]: hydrolyze into five intermediates
in vitro release profile of lead microparticle formulation ([4]; 1% mPEG-PLGA and 99% PLA100 4.5A:PLGA8515 5A (77:22), prepared in 1% PVA in water, FIG. 11): much more linear release profile
rate of drug release as a function of drug loading ([4]; microparticles with 13.5, 18.1, 27.4 and 38.2 % DL, FIG. 4): rate of drug release increased with increasing drug loading
% Drug loading [5, 11]: 13.83%
% Drug loading [5, 12]: 11.56%
% Drug loading [5, 13]: 12.29%
% Drug loading [5, 14]: 14.22%
% Drug loading [5, 15]: 13.53%
% Drug loading [5, 16]: 12.43%
% Drug loading ([5]; theoretical loading 15): 13.5%
% Encapsulation Efficiency ([5]; theoretical loading 15): 90.0%
% Drug loading ([5]; theoretical loading 20): 18.1%
% Encapsulation Efficiency ([5]; theoretical loading 20): 90.5%
% Drug loading ([5]; theoretical loading 30): 27.4%
% Encapsulation Efficiency ([5]; theoretical loading 30): 91.3%
% Drug loading ([5]; theoretical loading 40): 38.2%
% Encapsulation Efficiency ([5]; theoretical loading 40): 95.5%
Mean size [6, 11]: 27.62 um
Mean size [6, 12]: 26.95 um
Mean size [6, 13]: 27.88 um
Mean size [6, 14]: 26.59 um
Mean size [6, 15]: 26.27 um
Mean size [6, 16]: 26.19 um

CC(=O)OCC(=O)O[C@H](COc1nsnc1N1CCOCC1)CN(C(=O)COC(C)=O)C(C)(C)C [Compound 52, Timolol-N,O-bis-Glycolic acid-OAc]
parent Timolol released relative to total release of prodrug and intermediates ([7]; PBS and 1% Tween 20 (pH 7.4), 37° C.): primarily as native parent Timolol
maximum release duration ([7]; in vitro, FIG. 21): approximately 70 days
stability / breakdown into parent Timolol and breakdown products [8]: breaks down over the course of 15 days; also recorded: breaks down into parent Timolol

CC(=O)OCC(=O)N(C[C@@H](COc1nsnc1N1CCOCC1)OC(=O)COC(=O)C(C)OC(=O)C(C)O)C(C)(C)C (stereo partly drawn) [Compound 53, Timolol-N-Glycolic acid-OAc-O-Glycolic acid-PLA (n = 2)-OH]
linear (4-month) drug release ([7]; in vitro): did not exhibit linear drug release; also recorded: did not consistently meet the 4-month criteria
stability / breakdown into parent Timolol and breakdown products [8]: breaks down over the course of 8 days; also recorded: a significant amount of an additional breakdown product

C=C(CC)C(=O)c1ccc(OCC(=O)O)c(Cl)c1Cl [ECA, ethacrynic acid]
pka [9]: approximately 2.8
ocular adverse effects (glaucomatous monkey eyes): mild eyelid edema, conjunctival hyperemia, and discharge
ocular adverse effects (monkey eyes; especially at higher doses): corneal edema and moderate diffuse superficial corneal erosion
effect on IOP (monkey eyes; monkey eyes): effective in decreasing IOP
ocular adverse effects (rabbit eyes; especially at higher doses): corneal edema and moderate diffuse superficial corneal erosion
effect on IOP (rabbit eyes; rabbit eyes): effective in decreasing IOP

CCN(CC)CCNC(=O)c1c(C)[nH]c(/C=C2\C(=O)Nc3ccc(F)cc32)c1C [Sunitinib]
hepatotoxicity [10]: observed hepatotoxicity
